In ChEMBL document CHEMBL3991601, “The target landscape of clinical kinase drugs” (Science, 2017):
Active and inactive are the calls of the source.

Tests used:
[1] = biological target: Serine/threonine-protein kinase 10 (Homo sapiens, UniProt O94804)
Actin-related protein 2 = Actin-related protein 2 (Homo sapiens, UniProt P61160)
[2] = biological target: Casein kinase I isoform gamma-1 (Homo sapiens, UniProt Q9HCP0)
[3] = biological target: T1, Beta-adrenergic receptor kinase 1 (Homo sapiens, UniProt P25098)
T1 sequence (P25098 whole entry): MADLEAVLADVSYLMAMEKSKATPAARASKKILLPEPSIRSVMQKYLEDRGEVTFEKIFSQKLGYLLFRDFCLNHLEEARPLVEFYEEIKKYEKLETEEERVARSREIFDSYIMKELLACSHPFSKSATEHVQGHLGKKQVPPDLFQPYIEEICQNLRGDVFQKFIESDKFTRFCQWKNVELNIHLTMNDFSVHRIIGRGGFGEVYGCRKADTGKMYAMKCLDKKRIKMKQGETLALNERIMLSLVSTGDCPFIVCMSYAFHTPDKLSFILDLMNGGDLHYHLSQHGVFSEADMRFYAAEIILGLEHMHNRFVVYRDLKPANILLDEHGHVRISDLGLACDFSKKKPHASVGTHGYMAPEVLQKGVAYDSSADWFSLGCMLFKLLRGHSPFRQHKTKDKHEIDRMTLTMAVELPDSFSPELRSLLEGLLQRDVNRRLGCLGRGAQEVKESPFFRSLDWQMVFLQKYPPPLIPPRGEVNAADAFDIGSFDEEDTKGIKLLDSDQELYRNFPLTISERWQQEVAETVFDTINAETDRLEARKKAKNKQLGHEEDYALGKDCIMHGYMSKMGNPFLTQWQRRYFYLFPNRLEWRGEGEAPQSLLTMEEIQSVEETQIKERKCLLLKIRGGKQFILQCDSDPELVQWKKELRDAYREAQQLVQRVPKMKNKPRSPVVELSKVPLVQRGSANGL

[4] = biological target: Cyclin-dependent kinase 4 (Homo sapiens, UniProt P11802)
Midasin = Midasin (Homo sapiens, UniProt Q9NU22)
[5] = biological target: cAMP-dependent protein kinase catalytic subunit beta (Homo sapiens, UniProt P22694)
[6] = biological target: T2, Phosphatidylinositol 5-phosphate 4-kinase type-2 alpha (Homo sapiens, UniProt P48426)
T2 sequence (P48426 whole entry): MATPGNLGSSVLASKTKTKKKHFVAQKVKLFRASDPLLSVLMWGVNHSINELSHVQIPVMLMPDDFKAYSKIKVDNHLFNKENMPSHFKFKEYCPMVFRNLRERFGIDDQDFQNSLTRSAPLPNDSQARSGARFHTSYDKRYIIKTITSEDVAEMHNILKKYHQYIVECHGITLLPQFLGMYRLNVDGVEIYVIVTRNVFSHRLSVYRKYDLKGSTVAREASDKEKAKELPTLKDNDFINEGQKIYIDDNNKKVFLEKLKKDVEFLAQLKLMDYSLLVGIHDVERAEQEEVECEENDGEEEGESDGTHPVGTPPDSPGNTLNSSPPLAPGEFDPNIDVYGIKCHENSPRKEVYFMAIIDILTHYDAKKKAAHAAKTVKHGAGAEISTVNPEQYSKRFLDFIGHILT

[7] = biological target: T3, Phosphorylase b kinase gamma catalytic chain, liver/testis isoform (Homo sapiens, UniProt P15735)
T3 sequence (P15735 whole entry): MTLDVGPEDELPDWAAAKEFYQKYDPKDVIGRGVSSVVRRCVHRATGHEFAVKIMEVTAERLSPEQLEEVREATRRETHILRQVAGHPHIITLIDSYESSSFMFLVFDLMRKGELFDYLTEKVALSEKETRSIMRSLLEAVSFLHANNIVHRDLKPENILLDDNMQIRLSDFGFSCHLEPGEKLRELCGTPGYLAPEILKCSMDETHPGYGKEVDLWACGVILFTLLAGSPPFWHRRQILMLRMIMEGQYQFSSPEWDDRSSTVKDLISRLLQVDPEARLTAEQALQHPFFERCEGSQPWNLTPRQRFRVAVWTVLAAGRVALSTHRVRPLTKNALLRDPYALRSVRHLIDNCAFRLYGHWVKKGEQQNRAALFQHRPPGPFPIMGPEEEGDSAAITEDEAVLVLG

[8] = biological target: T4, Electron transfer flavoprotein subunit beta (Homo sapiens, UniProt P38117)
T4 sequence (P38117 whole entry): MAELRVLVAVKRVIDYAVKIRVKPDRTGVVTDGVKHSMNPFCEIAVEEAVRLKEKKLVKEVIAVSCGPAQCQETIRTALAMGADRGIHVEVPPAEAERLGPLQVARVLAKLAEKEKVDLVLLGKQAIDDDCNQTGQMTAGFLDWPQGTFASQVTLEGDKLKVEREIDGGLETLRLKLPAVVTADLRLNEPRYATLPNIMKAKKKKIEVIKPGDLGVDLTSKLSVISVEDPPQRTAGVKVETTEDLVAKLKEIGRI
Further: in the data inactive means no Kd found up to 30 µM.

Casein kinase I isoform gamma-1, sequence (Q9HCP0 whole entry, canonical isoform): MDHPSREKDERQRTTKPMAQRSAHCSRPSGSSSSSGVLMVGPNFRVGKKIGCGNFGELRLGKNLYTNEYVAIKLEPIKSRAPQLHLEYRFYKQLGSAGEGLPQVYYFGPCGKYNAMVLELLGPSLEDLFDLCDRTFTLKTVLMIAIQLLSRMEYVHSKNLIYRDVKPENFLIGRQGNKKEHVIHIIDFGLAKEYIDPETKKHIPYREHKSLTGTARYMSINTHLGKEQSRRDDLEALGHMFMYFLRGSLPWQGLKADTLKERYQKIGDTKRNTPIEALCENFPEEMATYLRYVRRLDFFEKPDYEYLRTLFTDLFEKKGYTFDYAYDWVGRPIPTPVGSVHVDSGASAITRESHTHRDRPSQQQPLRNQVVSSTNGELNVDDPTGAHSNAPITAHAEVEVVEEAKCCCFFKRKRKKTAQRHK
Serine/threonine-protein kinase 10, sequence (O94804 whole entry): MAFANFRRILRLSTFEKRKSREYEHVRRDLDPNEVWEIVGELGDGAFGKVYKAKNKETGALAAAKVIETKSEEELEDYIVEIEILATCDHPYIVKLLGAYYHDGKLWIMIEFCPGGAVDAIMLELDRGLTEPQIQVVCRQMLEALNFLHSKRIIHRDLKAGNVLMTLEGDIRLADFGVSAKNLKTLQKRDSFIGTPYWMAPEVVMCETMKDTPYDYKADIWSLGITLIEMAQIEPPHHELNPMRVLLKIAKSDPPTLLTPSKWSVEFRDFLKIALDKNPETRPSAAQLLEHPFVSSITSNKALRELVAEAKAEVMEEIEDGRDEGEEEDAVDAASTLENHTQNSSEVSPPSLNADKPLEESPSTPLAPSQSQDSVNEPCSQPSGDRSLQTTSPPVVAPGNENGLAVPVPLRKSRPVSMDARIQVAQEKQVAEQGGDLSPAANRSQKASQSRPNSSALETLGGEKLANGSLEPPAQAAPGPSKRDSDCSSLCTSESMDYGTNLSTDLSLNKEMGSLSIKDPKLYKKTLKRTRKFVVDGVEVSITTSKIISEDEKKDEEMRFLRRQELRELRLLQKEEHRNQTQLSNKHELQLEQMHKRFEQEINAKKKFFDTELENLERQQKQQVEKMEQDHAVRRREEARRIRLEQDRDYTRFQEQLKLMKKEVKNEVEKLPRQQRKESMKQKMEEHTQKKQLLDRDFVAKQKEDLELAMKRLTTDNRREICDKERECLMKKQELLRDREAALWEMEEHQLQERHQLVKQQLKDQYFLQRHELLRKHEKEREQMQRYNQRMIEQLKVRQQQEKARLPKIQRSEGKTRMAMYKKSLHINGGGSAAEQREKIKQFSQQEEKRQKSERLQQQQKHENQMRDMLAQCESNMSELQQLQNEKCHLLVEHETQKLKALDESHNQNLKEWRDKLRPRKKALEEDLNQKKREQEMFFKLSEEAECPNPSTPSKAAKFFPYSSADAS
Cyclin-dependent kinase 4, sequence (P11802 whole entry): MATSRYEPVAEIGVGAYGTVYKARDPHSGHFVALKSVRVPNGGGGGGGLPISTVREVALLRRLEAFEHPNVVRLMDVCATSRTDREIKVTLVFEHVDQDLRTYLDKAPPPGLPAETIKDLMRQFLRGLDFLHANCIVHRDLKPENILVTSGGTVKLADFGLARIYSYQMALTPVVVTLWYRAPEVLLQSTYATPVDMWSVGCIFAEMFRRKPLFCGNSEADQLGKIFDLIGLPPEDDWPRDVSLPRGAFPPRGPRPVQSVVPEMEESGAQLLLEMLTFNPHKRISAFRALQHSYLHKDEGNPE

SMILES	Kd [1]	Kd (Actin-related protein 2)	Kd [2]	Kd [3]	Kd [4]	Kd (Midasin)	Kd [5]	Kd [6]	Kd [7]	Kd [8]
COc1cc(Nc2ncc(F)c(Nc3ccc4c(n3)N(COP(=O)(O)O)C(=O)C(C)(C)O4)n2)cc(OC)c1OC [FOSTAMATINIB]	> 30 µM (inactive)	> 30 µM (inactive)	> 30 µM (inactive)	> 30 µM (inactive)	> 30 µM (inactive)	> 30 µM (inactive)	> 30 µM (inactive)	> 30 µM (inactive)	> 30 µM (inactive)	> 30 µM (inactive)
COc1ccc2c(OCc3nnc4ccc(-c5ccccc5)nn34)ccnc2c1 [AMG-208]	> 30 µM (inactive)	> 30 µM (inactive)	> 30 µM (inactive)	> 30 µM (inactive)	> 30 µM (inactive)	> 30 µM (inactive)	> 30 µM (inactive)	> 30 µM (inactive)	> 30 µM (inactive)	> 30 µM (inactive)
Cc1c(Cn2c(C)nc3c(C(=O)O)cc(N4CCOCC4)cc32)cccc1C(F)(F)F [GSK-2636771]	> 30 µM (inactive)	> 30 µM (inactive)	> 30 µM (inactive)	> 30 µM (inactive)	> 30 µM (inactive)	> 30 µM (inactive)	> 30 µM (inactive)	> 30 µM (inactive)	> 30 µM (inactive)	> 30 µM (inactive)
Cn1cc(-c2[nH]c3cc(NC(=O)[C@H](N)C4CCCCC4)cc4c3c2C=NNC4=O)cn1	> 30 µM (inactive)	> 30 µM (inactive)	> 30 µM (inactive)	3.56 µM (active)	> 30 µM (inactive)	> 30 µM (inactive)	> 30 µM (inactive)	> 30 µM (inactive)	> 30 µM (inactive)	> 30 µM (inactive)
NC(=O)c1ccc(N(C(N)=O)c2c(F)cccc2F)nc1-c1ccc(F)cc1F [VX-702]	> 30 µM (inactive)	> 30 µM (inactive)	> 30 µM (inactive)	> 30 µM (inactive)	> 30 µM (inactive)	> 30 µM (inactive)	> 30 µM (inactive)	> 30 µM (inactive)	> 30 µM (inactive)	> 30 µM (inactive)
COCCN1CCN(Cc2ccc(-c3n[nH]c4c3C(=O)c3c(NC(=O)NN5CCOCC5)cccc3-4)cc2)CC1 [RGB-286638]	> 30 µM (inactive)	> 30 µM (inactive)	3.18 µM (active)	> 30 µM (inactive)	> 30 µM (inactive)	> 30 µM (inactive)	> 30 µM (inactive)	> 30 µM (inactive)	> 30 µM (inactive)	> 30 µM (inactive)
NC[C@@](O)(c1ccc(Cl)cc1)c1ccc(-c2cn[nH]c2)cc1 [AT-13148]	> 30 µM (inactive)	> 30 µM (inactive)	> 30 µM (inactive)	0.17 µM (active)	> 30 µM (inactive)	> 30 µM (inactive)	0.014 µM (active)	> 30 µM (inactive)	> 30 µM (inactive)	> 30 µM (inactive)
COc1cc2nccc(Oc3ccc(NC(=O)C4(C(=O)Nc5ccc(F)cc5)CC4)cc3)c2cc1OC [CABOZANTINIB]	> 30 µM (inactive)	> 30 µM (inactive)	> 30 µM (inactive)	> 30 µM (inactive)	> 30 µM (inactive)	> 30 µM (inactive)	> 30 µM (inactive)	> 30 µM (inactive)	> 30 µM (inactive)	> 30 µM (inactive)
CCN(CCCOc1ccc2c(Nc3cc(CC(=O)Nc4cccc(F)c4)n[nH]3)ncnc2c1)CCOP(=O)(O)O [BARASERTIB]	> 30 µM (inactive)	> 30 µM (inactive)	> 30 µM (inactive)	> 30 µM (inactive)	> 30 µM (inactive)	> 30 µM (inactive)	> 30 µM (inactive)	> 30 µM (inactive)	> 30 µM (inactive)	> 30 µM (inactive)
Cc1cc(Nc2nc(N[C@@H](C)c3ncc(F)cn3)ncc2Cl)n[nH]1 [AZD-1480]	0.728 µM (active)	> 30 µM (inactive)	> 30 µM (inactive)	> 30 µM (inactive)	> 30 µM (inactive)	> 30 µM (inactive)	> 30 µM (inactive)	> 30 µM (inactive)	> 30 µM (inactive)	> 30 µM (inactive)
CCc1cc2c(cc1N1CCC(N3CCOCC3)CC1)C(C)(C)c1[nH]c3cc(C#N)ccc3c1C2=O [ALECTINIB]	> 30 µM (inactive)	> 30 µM (inactive)	> 30 µM (inactive)	> 30 µM (inactive)	> 30 µM (inactive)	> 30 µM (inactive)	> 30 µM (inactive)	> 30 µM (inactive)	1.71 µM (active)	> 30 µM (inactive)
O=S(=O)(c1cccc2c(O)nccc12)N1CCCNCC1 [HYDROXYFASUDIL]	> 30 µM (inactive)	> 30 µM (inactive)	> 30 µM (inactive)	> 30 µM (inactive)	> 30 µM (inactive)	> 30 µM (inactive)	> 30 µM (inactive)	> 30 µM (inactive)	> 30 µM (inactive)	> 30 µM (inactive)
